Earlier results in US11241503B2, “Oxadiazole linkers and use thereof” (NewBio Therapeutics, Inc., priority 2017, dated 2022).

Tested on: human carcinoma lines

IC50: 100 to 200 nM
SMILES: COc1cccc2c1C(=O)c1c(O)c3c(c(O)c1C2=O)C[C@@](O)(C(=O)CO)C[C@@H]3O[C@H]1C[C@H](N)[C@H](O)[C@H](C)O1 [doxorubicin, Doxorubicin]
